# Results reported in patent US20030148960A1, “Combination therapy of angiotensin converting enzyme inhibitor and side-effect-reduced amount of aldosterone antagonist for treatment of cardiovascular disease” (G.D. Searle & Co., priority 1995, published 2003).
# Key:
# [1] = tested on: patients with symptomatic heart failure; assay: Human clinical trial: incidence and predictors of hyperkalemia (Cox regression); conditions: type of ACE-I as predictor; step-wise Cox regression; patients on spironolactone or placebo
# Description: In this, analysis, the risk ratio can be thought of as the probability that the patient with the risk factor will develop hyperkalemia, relative to the probability that a patient without the risk factor will develop it.
# [2] = tested on: patients with symptomatic heart failure; assay: Human clinical trial: change in weight and vital signs; format: in vivo
# Description: Laboratory Measurements: The following information was obtained from each patient at baseline:
# (§1) Cardiac assessments that included blood pressure, pulse, sodium retention score (general assessment of a patient's edematous state was derived from the summation of scores obtained from Table I), NYHA classification, and
# All statistical methods were two-sided.
# [3] = tested on: patients with symptomatic heart failure; assay: Human clinical trial: incidence of adverse events, intent-to-treat cohort; format: in vivo
# [4] = tested on: patients with symptomatic heart failure; assay: Human clinical trial: hospitalizations and deaths; format: in vivo
# Description: A breakdown of the hospitalizations is as follows:
# [5] = tested on: patients with symptomatic heart failure; assay: Human clinical trial: cardiac assessments and changes in patient therapy; format: in vivo
# Description: as §1
# All statistical methods were two-sided.
# [6] = tested on: patients afflicted with congestive heart failure; conditions: 100 mg/day coadministered with an ACE inhibitor; cited from earlier work
# refractory CHF = conditions: 50 mg/day to 100 mg/day (average 73 mg/day) in combination with captopril; cited from earlier work
# [7] = tested on: myocardial fibrosis in animal models; conditions: cited from earlier work
# [8] = tested on: patients with symptomatic heart failure; assay: Human clinical trial: clinical laboratory values (neurohormones, hematology, biochemistry); conditions: for PRA (plasma renin activity), Week 12 mean change: Week 12 vs baseline, with stable ACE inhibitor and loop diuretic
compound,measurement,setting,value
"C[C@H](CS)C(=O)N1CCC[C@H]1C(=O)O [Captopril, captopril]","Risk ratio of hyperkalemia, captopril vs other ACE-I",[1],about one-third
"CC(=O)S[C@@H]1CC2=CC(=O)CC[C@]2(C)[C@H]2CC[C@@]3(C)[C@@H](CC[C@@]34CCC(=O)O4)[C@H]12 [Spironolactone, 17-hydroxy-7α-mercapto-3-oxo-17α-pregn-4-ene-21-carboxylic acid γ-lactone acetate]",Change in mean systolic and diastolic blood pressure (standing and supine),"[2]; 25 mg, 50 mg and 75 mg groups, all visits",decreases in mean systolic and diastolic blood pressure
same,Mean change in weight from baseline to Week 12,"[2]; 50 mg/d, Week 12, with stable ACE inhibitor and loop diuretic",0.62 (2.05)
same,"Change from baseline in body weight, dose response","[2]; 75 mg dose group, Day 9 and Week 4",more weight loss than other patients
same,Incidence of URT infection,[3]; 12.5 mg,4.9 Percentage of Patients
same,Incidence of abdominal pain,[3]; 12.5 mg,7.3 Percentage of Patients
same,Incidence of angina pectoris,[3]; 12.5 mg,19.5 Percentage of Patients
same,Incidence of arthralgia,[3]; 12.5 mg,4.9 Percentage of Patients
same,Incidence of coughing,[3]; 12.5 mg,4.9 Percentage of Patients
same,Incidence of diarrhea,[3]; 12.5 mg,4.9 Percentage of Patients
same,Incidence of dizziness,[3]; 12.5 mg,12.2 Percentage of Patients
same,Incidence of dyspnea,[3]; 12.5 mg,22.0 Percentage of Patients
same,Incidence of fatigue,[3]; 12.5 mg,12.2 Percentage of Patients
same,Incidence of headache,[3]; 12.5 mg,9.8 Percentage of Patients
same,Incidence of hyperkalemia (adverse event),[3]; 12.5 mg,2.4 Percentage of Patients
same,Incidence of nausea,[3]; 12.5 mg,2.4 Percentage of Patients
same,Incidence of URT infection,[3]; 25 mg,11.1 Percentage of Patients
same,Incidence of abdominal pain,[3]; 25 mg,8.9 Percentage of Patients
same,Incidence of angina pectoris,[3]; 25 mg,20.0 Percentage of Patients
same,Incidence of arthralgia,[3]; 25 mg,4.4 Percentage of Patients
same,Incidence of coughing,[3]; 25 mg,2.2 Percentage of Patients
same,Incidence of diarrhea,[3]; 25 mg,22.2 Percentage of Patients
same,Incidence of dizziness,[3]; 25 mg,13.3 Percentage of Patients
same,Incidence of dyspnea,[3]; 25 mg,15.6 Percentage of Patients
same,Incidence of fatigue,[3]; 25 mg,13.3 Percentage of Patients
same,Incidence of headache,[3]; 25 mg,2.2 Percentage of Patients
same,Incidence of hyperkalemia (adverse event),[3]; 25 mg,8.9 Percentage of Patients
same,Incidence of nausea,[3]; 25 mg,17.8 Percentage of Patients
same,Incidence of URT infection,[3]; 50 mg,8.7 Percentage of Patients
same,Incidence of abdominal pain,[3]; 50 mg,13.0 Percentage of Patients
same,Incidence of angina pectoris,[3]; 50 mg,8.7 Percentage of Patients
same,Incidence of arthralgia,[3]; 50 mg,8.7 Percentage of Patients
same,Incidence of coughing,[3]; 50 mg,4.3 Percentage of Patients
same,Incidence of diarrhea,[3]; 50 mg,8.7 Percentage of Patients
same,Incidence of dizziness,[3]; 50 mg,13.0 Percentage of Patients
same,Incidence of dyspnea,[3]; 50 mg,26.1 Percentage of Patients
same,Incidence of fatigue,[3]; 50 mg,15.2 Percentage of Patients
same,Incidence of headache,[3]; 50 mg,15.2 Percentage of Patients
same,Incidence of hyperkalemia (adverse event),[3]; 50 mg,15.2 Percentage of Patients
same,Incidence of nausea,[3]; 50 mg,6.5 Percentage of Patients
same,Incidence of URT infection,[3]; 75 mg,2.4 Percentage of Patients
same,Incidence of abdominal pain,[3]; 75 mg,7.3 Percentage of Patients
same,Incidence of angina pectoris,[3]; 75 mg,14.6 Percentage of Patients
same,Incidence of arthralgia,[3]; 75 mg,4.9 Percentage of Patients
same,Incidence of coughing,[3]; 75 mg,2.4 Percentage of Patients
same,Incidence of diarrhea,[3]; 75 mg,14.6 Percentage of Patients
same,Incidence of dizziness,[3]; 75 mg,17.1 Percentage of Patients
same,Incidence of dyspnea,[3]; 75 mg,24.4 Percentage of Patients
same,Incidence of fatigue,[3]; 75 mg,14.6 Percentage of Patients
same,Incidence of headache,[3]; 75 mg,7.3 Percentage of Patients
same,Incidence of hyperkalemia (adverse event),[3]; 75 mg,19.5 Percentage of Patients
same,Incidence of nausea,[3]; 75 mg,19.5 Percentage of Patients
same,"Hospitalizations, number of patients",[4]; 12.5 mg,3 Patients
same,"Hospitalizations, percent of patients",[4]; 12.5 mg,(7.3%)
same,"Hospitalizations, number of patients",[4]; 25 mg,3 Patients
same,"Hospitalizations, percent of patients",[4]; 25 mg,(6.6%)
same,"Hospitalizations, number of patients",[4]; 50 mg,13 Patients
same,"Hospitalizations, percent of patients",[4]; 50 mg,(27.6%)
same,"Hospitalizations, number of patients",[4]; 75 mg,6 Patients
same,"Hospitalizations, percent of patients",[4]; 75 mg,(14.6%)
same,Deaths within 30 days after the study was completed,[4]; patients previously at the 50 mg dose,Three patients died within 30 days after the study was completed
same,"Sodium retention score, dose response","[5]; Day 9, p=0.019, not seen at later visits",higher doses showing more reduction in sodium retention score
same,Changes in loop diuretic therapy,"[5]; Week 8, p=0.004, not observed at Week 12",more patients on the higher doses of spironolactone had decreases in the loop diuretic dose compared to the placebo group
same,NYHA Class,[5]; spironolactone groups vs placebo,the difference was not statistically significant
same,Patients in whom treatment was highly effective,[6],13 of 16
same,Control of refractory CHF,refractory CHF,effective to control refractory CHF without serious incidents of hyperkalemia
same,Effect on myocardial fibrosis,[7],prevents myocardial fibrosis
same,"PRA (plasma renin activity), Week 12 mean change",[8]; 12.5 mg/d,9.90 NgAngl/L/s
same,"PRA (plasma renin activity), Week 12 mean change",[8]; 25 mg/d,9.33 NgAngl/L/s
same,"PRA (plasma renin activity), Week 12 mean change",[8]; 50 mg/d,13.18 NgAngl/L/s
same,"PRA (plasma renin activity), Week 12 mean change",[8]; 75 mg/d,10.23 NgAngl/L/s
same,"Change from baseline in PRA, dose response","[8]; Day 9, Week 4 and Week 12, P≦0.001",higher doses of spironolactone associated with greater increases in PRA
same,N-Terminal ANF change from baseline,"[8]; all active treatments, all treatment visits",decreases from baseline
same,"Change from baseline in serum potassium, dose response","[8]; all treatment period visits, p<0.001",Higher doses of spironolactone were associated with larger increases in potassium
same,"Urinary aldosterone excretion, dose response","[8]; baseline to 12 week visit, p=0.002",Greater increases were seen at higher doses
